The assay has as its system CD2F1 mice, L1210 leukemia ip, survival T/C. Put plainly: NCI In Vivo Anticancer Drug Screen. Data for tumor model L1210 Leukemia (intraperitoneal) in CD2F1 (CDF1) mice. Conditions: higher = longer survival. An outline of the steps:
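Compound-dosed mice with transplantable tumor versus matched vehicle controls; endpoint ratio T/C reported.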

Where [1] appears, read: endpoint: mean survival time, dose: 100.0 mg/kg/injection, schedule: Q04DX003 (ip), vehicle: saline with Tween-80.
[2] abbreviates: endpoint: mean survival time, dose: 200.0 mg/kg/injection, schedule: Q01DX009 (ip), vehicle: saline with Tween-80.
[3] abbreviates: endpoint: mean survival time, dose: 200.0 mg/kg/injection, schedule: Q04DX003 (ip), vehicle: saline with Tween-80.
[4] abbreviates: endpoint: mean survival time, dose: 400.0 mg/kg/injection, schedule: Q04DX003 (ip), vehicle: saline with Tween-80.
Setting [5] is: endpoint: mean survival time, dose: 100.0 mg/kg/injection, schedule: Q01DX009 (ip), vehicle: saline with Tween-80.
Setting [6] is: endpoint: mean survival time, dose: 400.0 mg/kg/injection, schedule: Q01DX009 (ip), vehicle: saline with Tween-80.
Setting [7] is: endpoint: mean survival time, dose: 50.0 mg/kg/injection, schedule: Q01DX009 (ip), vehicle: saline with Tween-80.
[8] abbreviates: endpoint: mean survival time, dose: 100.0 mg/kg/injection, schedule: Q04DX002 (ip), vehicle: saline with Tween-80.

Values joined by “and” are separate entries in the source; they are usually repeats but may differ in a detail not shown here. Equal entries are not always repeated. Inconclusive results and toxic doses are left out.

As to `C/C=C1/OC(n2cnc3c(N)ncnc32)C(O)C1O` (stereo not drawn), the T/C is 103 % of control (endpoint: mean survival time, dose: 10.0 mg/kg/injection, schedule: Q01DX005 (ip), vehicle: distilled water + Tween-80); 107 % of control (endpoint: mean survival time, dose: 20.0 mg/kg/injection, schedule: Q01DX005 (ip), vehicle: distilled water + Tween-80); 95 % of control (endpoint: mean survival time, dose: 40.0 mg/kg/injection, schedule: Q01DX005 (ip), vehicle: distilled water + Tween-80); 100 % of control (endpoint: mean survival time, dose: 80.0 mg/kg/injection, schedule: Q01DX005 (ip), vehicle: distilled water + Tween-80); 97 % of control (endpoint: mean survival time, dose: 160.0 mg/kg/injection, schedule: Q01DX005 (ip), vehicle: distilled water + Tween-80).
Regarding `CCCCCCCCCCCCCCCC(=O)N(CCC#N)CCC#N`, the T/C by setting is: under setting [1], 93 % of control; under setting [2], 97 % of control; under setting [3], 96 % of control; under setting [4], 109 % of control.
Regarding `O=C(O)CCC(=O)c1ccc(Br)cc1`, the T/C under setting [5] is 94 % of control; the T/C under setting [1] is 101 % of control; the T/C under setting [2] was 103 % of control; the T/C under setting [3] is 97 % of control; the T/C under setting [6] is 91 % of control; the T/C under setting [4] is 89 % of control.
`O=C1NC23C(=O)N(C4CCCCC4)CC2(Cc2ccccc2)c2ccccc2N3C1=O` (stereo not drawn): the T/C is, setting by setting: (endpoint: mean survival time, dose: 100.0 mg/kg/injection, schedule: Q01DX001 (ip), vehicle: saline with Tween-80) 86 % of control; (endpoint: mean survival time, dose: 200.0 mg/kg/injection, schedule: Q01DX001 (ip), vehicle: saline with Tween-80) 92 % of control; (endpoint: mean survival time, dose: 400.0 mg/kg/injection, schedule: Q01DX001 (ip), vehicle: saline with Tween-80) 86 % of control.
Regarding `O=C(O)C(O)C(O)C(O)C(O)CO.[Mn]` (stereo not drawn), the T/C under setting [7] was 106 % of control; the T/C (endpoint: mean survival time, dose: 50.0 mg/kg/injection, schedule: Q04DX003 (ip), vehicle: saline with Tween-80) is 100 % of control; the T/C under setting [5] is 107 % of control; the T/C under setting [1] was 102 % of control; the T/C under setting [2] was 118 % of control; the T/C under setting [3] is 104 % of control.
Consider `O=C1C2(Cl)C(Cl)=C(Cl)C1(Cl)C1(Cl)C(Cl)=C(Cl)C(=O)C21Cl` (stereo not drawn), for which the T/C runs as follows: (endpoint: mean survival time, dose: 10.0 mg/kg/injection, schedule: Q01DX009 (ip), vehicle: saline with Tween-80) 94 % of control; (endpoint: mean survival time, dose: 20.0 mg/kg/injection, schedule: Q01DX009 (ip), vehicle: saline with Tween-80) 94 % of control; (endpoint: mean survival time, dose: 40.0 mg/kg/injection, schedule: Q01DX009 (ip), vehicle: saline with Tween-80) 92 % of control.
For the compound `CC1CCN(N=Nc2ccc(Br)cc2-c2nc(N)c3cc(Br)ccc3n2)CC1`, the T/C is 92 % of control (endpoint: mean survival time, dose: 6.25 mg/kg/injection, schedule: Q01DX005 (ip), vehicle: other); 103 % of control (endpoint: mean survival time, dose: 12.5 mg/kg/injection, schedule: Q01DX005 (ip), vehicle: other); 95 % of control (endpoint: mean survival time, dose: 25.0 mg/kg/injection, schedule: Q01DX005 (ip), vehicle: other); 92 % of control (endpoint: mean survival time, dose: 50.0 mg/kg/injection, schedule: Q01DX005 (ip), vehicle: other); 92 % of control (endpoint: mean survival time, dose: 100.0 mg/kg/injection, schedule: Q01DX005 (ip), vehicle: other).
As for `COc1ccc2c(c1O)CNCC2c1ccc(O)c(O)c1` (stereo not drawn), the T/C runs as follows: (endpoint: mean survival time, dose: 75.0 mg/kg/injection, schedule: Q01DX001 (ip), vehicle: saline) 106 % of control; (endpoint: mean survival time, dose: 150.0 mg/kg/injection, schedule: Q01DX001 (ip), vehicle: saline) 106 % of control; (endpoint: mean survival time, dose: 300.0 mg/kg/injection, schedule: Q01DX001 (ip), vehicle: saline) 108 % of control.
Regarding `CCCCC(=O)OCC[N+](C)(C)C`, the T/C reads like this: under setting [8], 100 % of control; (endpoint: mean survival time, dose: 200.0 mg/kg/injection, schedule: Q04DX002 (ip), vehicle: saline with Tween-80) 95 % of control; (endpoint: mean survival time, dose: 400.0 mg/kg/injection, schedule: Q04DX002 (ip), vehicle: saline with Tween-80) 91 % of control.
For `c1ccc(C2NNC(c3ccccc3)NN2)cc1` (stereo not drawn), the T/C by setting is: (endpoint: mean survival time, dose: 100.0 mg/kg/injection, schedule: Q01DX001 (ip), vehicle: other) 100 % of control; (endpoint: mean survival time, dose: 200.0 mg/kg/injection, schedule: Q01DX001 (ip), vehicle: other) 97 % of control; (endpoint: mean survival time, dose: 400.0 mg/kg/injection, schedule: Q01DX001 (ip), vehicle: other) 92 % of control.
With `NC(=O)C1(C(N)=O)CC1`, the T/C is, setting by setting: (endpoint: mean survival time, dose: 100.0 mg/kg/injection, schedule: Q04DX002 (ip), vehicle: saline) 108 % of control; (endpoint: mean survival time, dose: 200.0 mg/kg/injection, schedule: Q04DX002 (ip), vehicle: saline) 104 % of control; (endpoint: mean survival time, dose: 400.0 mg/kg/injection, schedule: Q04DX002 (ip), vehicle: saline) 100 % of control.
Consider `Nc1n[nH]c(=S)n1-c1ccccc1`, for which the T/C is 98 % of control (endpoint: mean survival time, dose: 50.0 mg/kg/injection, schedule: Q01DX009 (ip), vehicle: acetone); 93 % of control (endpoint: mean survival time, dose: 100.0 mg/kg/injection, schedule: Q01DX009 (ip), vehicle: acetone); 98 % of control (endpoint: mean survival time, dose: 200.0 mg/kg/injection, schedule: Q01DX009 (ip), vehicle: acetone).
In the case of `CC(=O)OCc1ccc(/C=N/Nc2ccc([N+](=O)[O-])cc2[N+](=O)[O-])cc1Br`, the T/C is, setting by setting: (endpoint: mean survival time, dose: 200.0 mg/kg/injection, schedule: Q04DX003 (ip), vehicle: saline) 108 % of control; (endpoint: mean survival time, dose: 400.0 mg/kg/injection, schedule: Q04DX003 (ip), vehicle: saline) 100 % of control.
Consider `O=S=NNc1ccccc1`, for which the T/C (endpoint: mean survival time, dose: 12.5 mg/kg/injection, schedule: Q01DX009 (ip), vehicle: saline with Tween-80) was 108 % of control; the T/C (endpoint: mean survival time, dose: 25.0 mg/kg/injection, schedule: Q01DX009 (ip), vehicle: saline with Tween-80) was 102 % of control; the T/C under setting [7] was 88 % of control and 90 % of control; the T/C under setting [1] is 95 % of control; the T/C under setting [3] was 89 % of control.
In the case of `O=C(CCBr)NCNC(=O)CCBr`, the T/C under setting [2] is 152 % of control and the T/C under setting [6] is 101 % of control.
For the compound `S=C=Nc1cccc(Cl)c1`, the T/C was 95 % of control and 100 % of control (endpoint: mean survival time, dose: 75.0 mg/kg/injection, schedule: Q01DX009 (ip), vehicle: saline with Tween-80); 100 % of control (endpoint: mean survival time, dose: 150.0 mg/kg/injection, schedule: Q01DX009 (ip), vehicle: saline with Tween-80); 86 % of control (endpoint: mean survival time, dose: 300.0 mg/kg/injection, schedule: Q01DX009 (ip), vehicle: saline with Tween-80).
Consider `COc1ccc(C(=O)/C(C)=C(/C)NCCC#N)c(OCc2ccccc2)c1OC`, for which the T/C was 97 % of control (endpoint: mean survival time, dose: 12.5 mg/kg/injection, schedule: Q01DX009 (ip), vehicle: other); 97 % of control (endpoint: mean survival time, dose: 25.0 mg/kg/injection, schedule: Q01DX009 (ip), vehicle: other); 97 % of control (endpoint: mean survival time, dose: 50.0 mg/kg/injection, schedule: Q01DX009 (ip), vehicle: other); 95 % of control (endpoint: mean survival time, dose: 100.0 mg/kg/injection, schedule: Q01DX009 (ip), vehicle: other); 104 % of control (endpoint: mean survival time, dose: 200.0 mg/kg/injection, schedule: Q01DX009 (ip), vehicle: other).
As to `CC(=O)OC1COC(n2nnc3c(-c4ccccc4)c(C)nn32)C(OC(C)=O)C1OC(C)=O` (stereo not drawn), the T/C by setting is: (endpoint: median survival time, dose: 12.5 mg/kg/injection, schedule: Q01DX005 (ip), vehicle: Klucel (hydroxypropylcellulose) (HPC)) 112 % of control; (endpoint: median survival time, dose: 25.0 mg/kg/injection, schedule: Q01DX005 (ip), vehicle: Klucel (hydroxypropylcellulose) (HPC)) 104 % of control; (endpoint: median survival time, dose: 50.0 mg/kg/injection, schedule: Q01DX005 (ip), vehicle: Klucel (hydroxypropylcellulose) (HPC)) 97 % of control; (endpoint: median survival time, dose: 100.0 mg/kg/injection, schedule: Q01DX005 (ip), vehicle: Klucel (hydroxypropylcellulose) (HPC)) 100 % of control; (endpoint: median survival time, dose: 200.0 mg/kg/injection, schedule: Q01DX005 (ip), vehicle: Klucel (hydroxypropylcellulose) (HPC)) 95 % of control.
As to `OC(CC1=NCCS1)(c1ccccc1)c1ccccc1`, the T/C is 93 % of control under setting [1], 87 % of control under setting [3] and 98 % of control under setting [4].
As to `CCCCSP(=O)(CCl)SCCCC`, the T/C reads like this: (endpoint: mean survival time, dose: 25.0 mg/kg/injection, schedule: Q04DX002 (ip), vehicle: saline with Tween-80) 93 % of control; (endpoint: mean survival time, dose: 50.0 mg/kg/injection, schedule: Q04DX002 (ip), vehicle: saline with Tween-80) 97 % of control; under setting [8], 93 % of control.
Turning to `O=Cc1cc([N+](=O)[O-])cc(CCl)c1O`, the T/C (endpoint: mean survival time, dose: 25.0 mg/kg/injection, schedule: Q01DX009 (ip), vehicle: Klucel (hydroxypropylcellulose) (HPC)) is 95 % of control; the T/C (endpoint: mean survival time, dose: 50.0 mg/kg/injection, schedule: Q01DX009 (ip), vehicle: Klucel (hydroxypropylcellulose) (HPC)) was 95 % of control; the T/C (endpoint: mean survival time, dose: 100.0 mg/kg/injection, schedule: Q01DX009 (ip), vehicle: Klucel (hydroxypropylcellulose) (HPC)) is 101 % of control.

The values above are taken from PubChem BioAssay AID256 (DTP/NCI, 2004).
